Experimental data: patent publication US12404304B1, “Telomerase reverse transcriptase (TERT) expression enhancing compounds and methods for using the same” (Sierra Sciences, LLC, priority 2007, dated 2025)
Where two headings read alike, the source gives them in different places.

Experiments:
[1] = tested on: human TERT expression (hTERT mRNA); assay: Quantitative real-time RT-PCR of hTERT mRNA expression (Ct, transcripts) in compound-treated cells; assay type: cell-based
Outline: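 Read-out is cycle threshold, the cycle at which probe fluorescence released by Taq 5′-nuclease activity crosses a set level; Ct falls as hTERT mRNA rises. cDNA of treated and untreated cells was compared, with starting transcripts quantified against a known-cDNA standard curve.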

[2] = tested on: viable cells in culture; assay: Cell viability assay (CellTiter-Glo Luminescent Cell Viability Assay, ATP quantitation, percent of vehicle control)
Protocol: Cell viability is determined using a homogeneous method, such as CellTiter-Glo® Luminescent Cell Viability Assay (Promega Corporation, Madison, WI.) to determine the number of viable cells in culture These assays are based on quantitation of the ATP present, which signals the presence of metabolically active cells. Luminescent values of compound treated cells are compared to that of cells treated with vehicle alone to determine the average cell viability as a percent of control.

SMILES | Average Number of hTERT Transcripts [1] | Average Cell Viability after 24 Hours (% DMSO) [2] | Average Number of hTERT Transcripts ([1]; quantitative real-time RT-PCR)
FC(F)(F)c1cccc(NC(=S)Nc2ccc(Cc3ccncc3)cc2)c1 [compound 1449] | 48.57 | 53.58 % DMSO | 
Oc1cc(-c2ccc(F)cc2)nn1-c1nc2ccccc2[nH]1 [compound 1110] |  | 100.67 % DMSO | 86.68
O=S(=O)(c1cccc(F)c1)N1CCC(Oc2ccc(-n3cnnn3)cc2)CC1 [compound 1251] |  | 65.10 % DMSO | 23.22
Cc1nc(-n2nc(C)c(CCC(=O)N3CCCCC3)c2O)sc1C [compound 1137] |  | 81.10 % DMSO | 81.62
CC1=NN(C(=O)c2cc(Br)ccc2O)C(O)(c2ccccc2)C1 (centres unmarked) [compound 1319] |  | 61.93 % DMSO | 15.04
Cc1cc(=O)n2ncc(-c3ccc(Cl)cc3)c2[nH]1 [compound 1157] |  | 71.08 % DMSO | 16.13
CCOC(=O)c1nn(-c2ccccc2)c(=O)c2c(NC(=O)c3ccc4c(c3)OCO4)scc12 [compound 1298] |  | 101.83 % DMSO | 8.68
Cc1ccccc1NC(=O)C1CC(Cl)=CCC1C(=O)O (centres unmarked) [compound 1374] | 5.48 | 107.65 % DMSO | 
CS(=O)(=O)N1CCN(c2ccc(NC(=O)c3cccc(OCc4ccccc4)c3)cc2)CC1 [compound 1534] | 3.18 | 90.05 % DMSO | 
CCCCNC(=O)Cc1c(C)nn(-c2nc(C)c(C)s2)c1O [compound 1124] |  | 87.04 % DMSO | 34.96
Cc1nnc(SCC2=NN(c3nc4ccccc4[nH]3)C(=O)C2)s1 [compound 1118] |  | 73.41 % DMSO | 54.45
CCC(C)NC(=S)Nc1ccc(F)cc1 (centres unmarked) [compound 1392] | 4.99 | 102.61 % DMSO | 
CCC(C)c1ccccc1OCCCCN1CCN(C)CC1 (centres unmarked) [compound 1378] | 11.15 | 89.06 % DMSO | 
CC(/C=C/c1ccc(N(C)C)cc1)=N\NC(=N)SC1CC(=O)N(c2ccc(Cl)cc2)C1=O (centres unmarked) [compound 1473] | 32.72 | 69.29 % DMSO | 
CCC(=O)Oc1cccc2ccc(/C=C/c3ccccc3Cl)nc12 [compound 1432] | 19.46 | 86.95 % DMSO | 
CCOC(=O)COc1ccc2c(=O)c(-c3ccccc3Cl)c(C)oc2c1C [compound 1337] |  | 67.33 % DMSO | 30.15
COc1ccc(S(=O)(=O)N(CC(=O)NC2CC3CCC2C3)c2ccccc2)cc1OC (centres unmarked) [compound 1421] | 6.96 | 104.42 % DMSO | 
COc1ccc(C(NC(=O)CC(C)C)c2ccc3cccnc3c2O)cc1OC (centres unmarked) [compound 1076] |  | 62.85 % DMSO | 61.45
CC(C)(C)c1cc(-c2nc3ccccc3[nH]2)c(O)c(-c2nc3ccccc3[nH]2)c1 [compound 1555] | 52.10 | 90.08 % DMSO | 
O=C(Cn1c(=O)oc2ccccc21)Nc1cc(Cl)ccc1Cl [compound 1429] | 13.70 | 83.97 % DMSO | 

SMILES | Average Number of hTERT Transcripts [1] | Average Cell Viability after 24 Hours (% DMSO) [2] | Average Number of hTERT Transcripts ([1]; quantitative real-time RT-PCR)
CCC(C)NC(=S)Nc1ccc([N+](=O)[O-])cc1 (centres unmarked) [compound 1375] | 11.45 | 92.06 % DMSO | 
CN(C)S(=O)(=O)c1ccc(C(=O)Nc2nc(-c3ccccn3)cs2)cc1 [compound 1504] | 40.27 | 76.43 % DMSO | 
Oc1c(CN2CCN(Cc3ccc4cccnc4c3O)CC2)ccc2cccnc12 [compound 1085] |  | 61.83 % DMSO | 59.41
CCCCOC(=O)c1c(C)oc2ccc(NS(=O)(=O)c3ccc4ccccc4c3)cc12 [compound 1237] |  | 71.28 % DMSO | 43.79
COc1ccc(OCC(=O)N/N=C/c2cccc3cccnc23)cc1 [compound 1289] |  | 84.79 % DMSO | 21.50
CCCNC(=O)c1cc(-c2cccs2)on1 [compound 1188, 5-thiophen-2-yl-isoxazole-3-carboxylic acid propylamide] |  | 88.71 % DMSO | 295.07
Cc1ccn(CCCNC(=O)c2cc(-c3cccs3)on2)n1 [compound 1513] | 102.76 | 82.67 % DMSO | 
Cc1cc(NC(=O)C2c3ccccc3Oc3ccccc32)n(-c2nc(C)c(C)c(=O)[nH]2)n1 [compound 1295] |  | 66.62 % DMSO | 45.40
COc1ccc(C(=O)NC(=S)Nc2ccc(Nc3ccccc3)cc2)cc1Br [compound 1417] | 5.13 | 92.17 % DMSO | 
CCCc1c(C)[nH]c2c(-c3ccc(Cl)cc3)c(C)nn2c1=O [compound 1155] |  | 80.19 % DMSO | 15.30
O=C(Cc1ccccc1)N/N=C/c1cccc2cccnc12 [compound 1286] |  | 75.11 % DMSO | 29.62
Cc1ccc(S(=O)(=O)CC(=O)Nc2ncc(-c3ccccn3)s2)cc1 [compound 1512] | 102.66 | 81.39 % DMSO | 
Nc1c2ccccc2nc2ccccc12 [compound 1456] | 92.07 | 57.96 % DMSO | 
COc1ccc(-c2cc(=O)n3nc(C)c(-c4ccc(F)cc4)c3[nH]2)cc1 [compound 1154] |  | 69.15 % DMSO | 48.37
Cc1ccc(SCc2cc(=O)n3nc(C)c(-c4ccc(F)cc4)c3[nH]2)cc1 [compound 1168] |  | 63.67 % DMSO | 79.80
CC(C)COc1ccc(NC(=O)C2CC2)cc1 [compound 1352] |  | 83.84 % DMSO | 5.61
CCCCNC(=O)c1cc(-c2ccco2)on1 [compound 1191] |  | 95.11 % DMSO | 164.47
O=C(O)c1ccc(NC(=S)NC(=O)c2cccc3ccccc23)cc1 [compound 1383] | 53.78 | 74.00 % DMSO | 
Cc1cnc(CNC(=O)c2cc(-c3cccs3)on2)cn1 [compound 1519] | 303.81 | 110.34 % DMSO | 
CCC(=O)NC(=S)Nc1ccccc1C#N [compound 1419] | 5.40 | 87.51 % DMSO | 
